Common to all, as to format: biochemical
The target of one assay is T1, CDK9 (Homo sapiens, UniProt P50750).
T1 construct: purchased Invitrogen
Nature of the assay: Lance Ultra KinaSelect Assay, CDK9. To be noted: cyclin partner (T1 or K) not stated; read-out: CDK9 LANCE assay (activity range), IC50. As to the method:
(§1) 2. Measurement of half maximal inhibitory concentration to CDKs This protocol describes how the Lance Ultra KinaSelect Assay was performed to determine half maximal inhibitory concentration (1050) of compounds of general formula (I) and CDK/Cyclin complexes. The principle behind this enzymatic assay is based upon the phosphorylation of the ULight-Peptide Substrat. It is detected by using a specific
(§2) EU-labeled anti-phospho peptide antibody. The binding of the Eu-labeled anti-phospho peptide antibody to the phosphorylated ULight labeled peptide gives rise to a FRET-signal. Binding of an inhibitor to the kinase prevents phosphorylation of the ULight-MBP Substrat, resulting in a loss of FRET.
(§3) The compounds of general formula (I) summarized in Table 5 were diluted from a 10 mM DMSO stock solution 1:10 in a total volume of 15 μL DMSO. This compound predilution was then serial diluted 1:3 over 8 steps in DMSO and briefly spun down. Each compound solution was now diluted 1:20 in Enzymatic Buffer (HEPES: 50 mM, pH: 7.5; MgCl2: 10 mM; EGTA: 1 mM; DTT: 2 mM; Tween-20: 0.01%), mixed thoroughly and spun down. For every sample, 2 μL of the diluted compound were mixed with 6 μL CDK/Cyclin/Substrat solution and 2 μL ATP solution in a well of a small volume 384 well plate (Corning Incorporated, Corning, N.Y., USA; order no. 3673). The CDK/Cyclin was diluted to the appropriate concentration (see Table 3) and the ATP concentration was adjusted to its […] for the CDK/Cyclin, which was 3 μM for CDK2/Cyclin A, 20 μM for CDK1/Cyclin B1, 25 μM for CDK7/Cyclin H and CDK9/Cyclin T1, 55 μM for CDK6/Cyclin D3, 90 μM for CDK4/Cyclin D1 and 125 μM for CDK9/Cyclin K. For negative controls, in each well 2 μL of DMSO solution (1% final DMSO assay concentration) was mixed with 6 μL substrate solution (50 nM ULight MBP final assay concentration) and 2 μL ATP solution (appropriate final concentration see Table 3). For positive controls, in each well 2 μL of DMSO solution (1% final DMSO assay concentration) was mixed with 6 μL CDK/Cyclin/Substrat (appropriate final concentration see Table 3) and 2 μL Tracer ATP solution (appropriate final concentration see Table 3). Positive and negative controls were calculated from at least 8 different sample wells. The 384 well plates were mixed in a Teleshaker plate mixer (Beckman Coulter, Brea, Calif., USA) at 2000 rpm for 40 sec, and incubated for 1 h at room temperature. Before reading, 10 μL the detection buffer (Lance Detection Buffer 1×; EDTA: […]; Eu-Anti-P-MBP: see Table 3) was added. The FRET signal was measured at 340 nm excitation, 665 nm and 615 nm emission (for the kinase tracer and LanthaScreen Eu-AB, respectively) with an Envision spectrophotometer (Perkin Elmer, Waltham, Mass., USA) with 50 μs delay and 300 μs integration time. IC50 values were determined from the sigmoidal dose response curves with the software Quattro Workflow (Quattro GmbH, Munich, Germany).

For another assay, the target named is T2, CDK1/CyclinB1 (Homo sapiens, UniProt P06493).
T2 construct: purchased Carna
T2 sequence (P06493 whole entry): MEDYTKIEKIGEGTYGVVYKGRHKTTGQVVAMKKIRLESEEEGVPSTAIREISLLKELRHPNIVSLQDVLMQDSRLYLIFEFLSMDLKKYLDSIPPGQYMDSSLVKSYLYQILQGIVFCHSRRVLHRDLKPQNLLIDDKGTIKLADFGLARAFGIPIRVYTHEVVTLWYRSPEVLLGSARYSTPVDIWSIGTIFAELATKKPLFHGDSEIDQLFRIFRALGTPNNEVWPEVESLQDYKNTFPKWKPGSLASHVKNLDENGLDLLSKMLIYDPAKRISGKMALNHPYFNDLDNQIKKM
T2 sequence (P14635 whole entry partner): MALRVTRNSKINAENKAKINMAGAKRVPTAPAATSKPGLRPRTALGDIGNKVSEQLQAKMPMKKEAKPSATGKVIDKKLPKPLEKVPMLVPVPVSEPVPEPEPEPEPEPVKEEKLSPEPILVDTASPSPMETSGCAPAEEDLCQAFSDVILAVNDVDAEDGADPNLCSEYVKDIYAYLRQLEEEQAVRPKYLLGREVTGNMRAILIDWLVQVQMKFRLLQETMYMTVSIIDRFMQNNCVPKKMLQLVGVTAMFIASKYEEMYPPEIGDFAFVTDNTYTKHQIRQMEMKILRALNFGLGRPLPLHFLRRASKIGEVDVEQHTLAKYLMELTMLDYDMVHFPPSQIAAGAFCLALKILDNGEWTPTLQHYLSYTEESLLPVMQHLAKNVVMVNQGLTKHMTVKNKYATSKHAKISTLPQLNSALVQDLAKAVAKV
The assay is described as follows: Lance Ultra KinaSelect Assay, CDK1. As to conditions: ATP 20 μM; read-out: CDK1 LANCE assay (activity range), IC50. As to the method: as §1, §2, §3
(Time-resolved FRET reads energy transfer from a long-lived donor to a nearby acceptor.)

For the next assay, the target named is T3, CDK2/CyclinA (Homo sapiens, UniProt P24941).
T3 construct: GST; purchased Proqinase
Nature of the assay: Lance Ultra KinaSelect Assay, CDK2. To be noted: ATP 3 μM; read-out: CDK2 LANCE assay (activity range), IC50. As to the method: as §1, §2, §3

Another assay concerns the target T4, CDK7/CyclinH/MAT1 (Homo sapiens, UniProt P50613).
T4 construct: His; purchased Carna Biosciences
The assay is described as follows: Lance Ultra KinaSelect Assay, CDK7. As to conditions: ATP 25 μM; read-out: CDK7 LANCE assay (activity range), IC50. As to the method: as §1, §2, §3

T4 sequence (P50613 whole entry): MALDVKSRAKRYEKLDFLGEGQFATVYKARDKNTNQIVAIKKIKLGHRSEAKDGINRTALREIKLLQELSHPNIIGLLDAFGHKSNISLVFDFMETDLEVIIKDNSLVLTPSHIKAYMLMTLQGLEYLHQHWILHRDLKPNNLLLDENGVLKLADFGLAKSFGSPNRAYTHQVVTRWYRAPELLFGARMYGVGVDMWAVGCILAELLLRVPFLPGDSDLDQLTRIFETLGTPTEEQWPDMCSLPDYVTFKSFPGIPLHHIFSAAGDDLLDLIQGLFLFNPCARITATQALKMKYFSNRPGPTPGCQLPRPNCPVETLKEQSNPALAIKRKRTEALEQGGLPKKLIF
T4 sequence (P51946 whole entry partner): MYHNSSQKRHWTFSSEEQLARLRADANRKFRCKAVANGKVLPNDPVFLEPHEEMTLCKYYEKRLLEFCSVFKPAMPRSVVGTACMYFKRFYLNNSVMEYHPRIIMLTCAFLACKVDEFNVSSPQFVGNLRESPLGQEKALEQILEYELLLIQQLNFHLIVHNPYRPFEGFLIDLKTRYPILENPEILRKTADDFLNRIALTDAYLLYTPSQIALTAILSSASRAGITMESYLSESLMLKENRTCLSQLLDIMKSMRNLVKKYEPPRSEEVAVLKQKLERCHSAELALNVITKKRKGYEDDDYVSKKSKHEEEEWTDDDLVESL
T4 sequence (P51948 whole entry partner): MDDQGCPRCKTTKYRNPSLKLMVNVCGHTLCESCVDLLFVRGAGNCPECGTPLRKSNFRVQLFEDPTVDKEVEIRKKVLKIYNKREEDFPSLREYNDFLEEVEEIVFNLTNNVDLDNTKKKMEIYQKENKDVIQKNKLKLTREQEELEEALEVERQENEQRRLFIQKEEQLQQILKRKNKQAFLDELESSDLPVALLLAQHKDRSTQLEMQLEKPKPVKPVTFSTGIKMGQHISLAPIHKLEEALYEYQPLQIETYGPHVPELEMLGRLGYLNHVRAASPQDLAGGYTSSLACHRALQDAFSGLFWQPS
T1 sequence (P50750 whole entry): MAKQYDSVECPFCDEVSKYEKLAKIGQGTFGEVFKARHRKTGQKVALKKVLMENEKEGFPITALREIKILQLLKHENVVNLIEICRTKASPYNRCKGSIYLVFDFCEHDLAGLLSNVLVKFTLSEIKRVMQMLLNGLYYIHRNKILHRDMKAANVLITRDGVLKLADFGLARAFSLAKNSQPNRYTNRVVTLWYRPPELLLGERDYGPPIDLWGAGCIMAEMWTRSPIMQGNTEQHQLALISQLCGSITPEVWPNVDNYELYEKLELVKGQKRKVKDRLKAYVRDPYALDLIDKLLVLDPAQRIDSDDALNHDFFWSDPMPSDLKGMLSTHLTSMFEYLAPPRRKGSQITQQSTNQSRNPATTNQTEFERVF

With `NS(=O)(=O)Cc1cccc(Nc2ncnc(N3CCc4nc[nH]c4C3)n2)c1` [Compound B44, 3-[(4-(6,7-Dihydro-3H-imidazo[4,5-c]pyridin-5(4H)-yl)-1,3,5-triazin-2-yl)amino]benzenemethanesulfonamide], the 50% inhibitory concentration (IC50) (commonly the concentration at which inhibition is half-maximal) at CDK9 is below 100 nM.
Same read-out and setting: in the case of `COC(=O)[C@H]1CCCN1c1ncnc(Nc2cccc(CS(N)(=O)=O)c2)n1` [Compound B21, (R)-Methyl 1-[4-((3-(Sulfamoylmethyl)phenyl)amino)-1,3,5-triazin-2-yl]pyrrolidine-2-carboxylate] it was 100 to 1000 nM.
Regarding `COC[C@H]1CCCN1c1ncnc(Nc2cccc(CS(N)(=O)=O)c2)n1` [Compound B17, (R)-3-[(4-(2-(Methoxymethyl)pyrrolidin-1-yl)-1,3,5-triazin-2-yl)amino]benzenemethanesulfonamide], the IC50 is 1000 to 10000 nM at CDK1/CyclinB1, 100 to 1000 nM on CDK9, 1000 to 10000 nM on CDK2/CyclinA and above 10000 nM at CDK7/CyclinH/MAT1.
Regarding `NS(=O)(=O)Cc1cccc(Nc2ncnc(N3CCc4ncsc4C3)n2)c1` [Compound B45, 3-[(4-(6,7-Dihydrothiazolo[5,4-c]pyridin-5(4H)-yl)-1,3,5-triazin-2-yl)amino]benzenemethanesulfonamide], the half-inhibitory concentration (IC50) at CDK9 is below 100 nM; at CDK2/CyclinA, below 100 nM; at CDK7/CyclinH/MAT1 it was 1000 to 10000 nM.
Take `NS(=O)(=O)Cc1cccc(Nc2ncnc(N3CCCCC3)n2)c1` [Compound B1, 3-[(4-(Piperidin-1-yl)-1,3,5-triazin-2-yl)amino]benzenemethane sulfonamide]: the IC50 on CDK1/CyclinB1 is above 10000 nM; on CDK9 it was 1000 to 10000 nM; on CDK2/CyclinA it was above 10000 nM; on CDK7/CyclinH/MAT1, above 10000 nM.
Consider `NS(=O)(=O)Cc1cccc(Nc2ncnc(N3CCc4ncccc4C3)n2)c1` [Compound B38, 3-[(4-(7,8-Dihydro-1,6-naphthyridin-6(5H)-yl)-1,3,5-triazin-2-yl)amino]-benzenemethanesulfonamide], for which the IC50 was 100 to 1000 nM at CDK1/CyclinB1, below 100 nM at CDK9, 100 to 1000 nM on CDK2/CyclinA and above 10000 nM on CDK7/CyclinH/MAT1.
For the compound `NS(=O)(=O)Cc1cccc(Nc2ncnc(N3CCCn4nccc43)n2)c1` [Compound B47, 3-[(4-(6,7-Dihydropyrazolo[1,5-a]pyrimidin-4(5H)-yl)-1,3,5-triazin-2-yl)amino]benzenemethanesulfonamide], the IC50 on CDK1/CyclinB1 is 100 to 1000 nM; at CDK9, below 100 nM; at CDK2/CyclinA it was below 100 nM; at CDK7/CyclinH/MAT1, 1000 to 10000 nM.
`NS(=O)(=O)Cc1cccc(Nc2ncnc(N3CCCC3c3ccccc3)n2)c1` (racemic) [Compound B33, rac-3-[(4-(2-Phenylpyrrolidin-1-yl)-1,3,5-triazin-2-yl)amino]-benzenemethanesulfonamide]: the half-maximal inhibitory concentration (IC50) on CDK1/CyclinB1 is 1000 to 10000 nM; at CDK9 it was 100 to 1000 nM; on CDK2/CyclinA, above 10000 nM; on CDK7/CyclinH/MAT1, above 10000 nM.
Regarding `NS(=O)(=O)Cc1cccc(Nc2ncnc(N3Cc4cn[nH]c4C3)n2)c1` [Compound B51, 3-[(4-(Pyrrolo[3,4-c]pyrazol-5(1H,4H,6H)-yl)-1,3,5-triazin-2-yl)amino]-benzenemethanesulfonamide], the IC50 was 1000 to 10000 nM at CDK1/CyclinB1, below 100 nM on CDK9, 100 to 1000 nM at CDK2/CyclinA and above 10000 nM on CDK7/CyclinH/MAT1.

The values are drawn from US9226929B2, “Pharmaceutically active disubstituted triazine derivatives” (Bayer Intellectual Property GMBH, priority 2011, dated 2016).
